Key:
[1] = molecular target: Human plasma kallikrein (Homo sapiens (Human), UniProt P03952); assay: Plasma Kallikrein Assay; type: biochemical; conditions: purified Human plasma kallikrein 0.5 nM, substrate Acetyl-K-P-R-AFC, pH 7.4; read-out: PKal IC50
Method: (§1) The effectiveness of a compound of the present invention as an inhibitor of plasma kallikrein can be determined using a relevant purified serine protease, and an appropriate synthetic substrate. The rate of hydrolysis of the chromogenic or fluorogenic substrate by the relevant serine protease was measured both in the absence and presence of compounds of the present invention. Assays were conducted at rt or at 37° C. […] A decrease in the rate of fluorescence change in the presence of inhibitor is indicative of enzyme inhibition. Such methods are known to one skilled in the art. The results of this assay are expressed as the half-maximal inhibitory concentrations (IC50), or the inhibitory constant, Ki.
Plasma kallikrein determinations were made in 50 mM HEPES buffer at pH 7.4 containing 150 mM NaCl, 5 mM CaCl2, and 0.1% PEG 8000 (polyethylene glycol; Fisher Scientific). Determinations were made using purified Human plasma kallikrein at a final concentration of 0.5 nM (Enzyme Research Laboratories) and the synthetic substrate, Acetyl-K-P-R-AFC (Sigma #C6608) at a concentration of […].
Activity assays were performed by diluting a stock solution of substrate at least tenfold to a final concentration ≤0.2 Km into a solution containing enzyme or enzyme equilibrated with inhibitor. Times required to achieve equilibration between enzyme and inhibitor were determined in control experiments. The reactions were performed under linear progress curve conditions and fluorescence increase measured at 405 Ex/510 Em nm. Values were converted to percent inhibition of the control reaction (after subtracting 100% Inhibition value). IC50 was determined by inflection point from a four parameter logistic curve fit. Ki was calculated using the Cheng Prusoff equation, Ki=IC50/(1+[S]/Km)).

[2] = molecular target: Coagulation factor XIa (Homo sapiens (Human), UniProt P03951); assay: Factor XIa Assay; type: biochemical; conditions: human factor XIa 0.04 nM, substrate GPR-AFC, 30 min pre-incubation at 25° C., pH 7.4; read-out: FXIa IC50
Method: as §1, with “Coagulation factor XIa” for “plasma kallikrein”
Compounds were pre-incubated for 30 min at 25° C. with human (0.04 nM) factor XIa in 50 mM HEPES buffer with 150 mM sodium chloride, 5 mM calcium chloride, 0.1% PEG 8000, pH 7.4. factor XIa enzymatic activity was determined by addition of the substrate glycine-proline-arginine-7-amido-4-trifluoromethylcoumarin (GPR-AFC) and measurement of the fluorescence at 400/505 nm after a 60 min incubation at 25° C. The % inhibition for each data point was calculated from the data and analyzed using the log (inhibitor) vs. response four parameters equation to determine the half-maximal inhibitory concentrations (IC50). The IC50 were converted to equilibrium inhibitory constants (Ki) using the Cheng-Prusoff equation.

Sequence of Coagulation factor XIa (P03951 388-625 limits assumed): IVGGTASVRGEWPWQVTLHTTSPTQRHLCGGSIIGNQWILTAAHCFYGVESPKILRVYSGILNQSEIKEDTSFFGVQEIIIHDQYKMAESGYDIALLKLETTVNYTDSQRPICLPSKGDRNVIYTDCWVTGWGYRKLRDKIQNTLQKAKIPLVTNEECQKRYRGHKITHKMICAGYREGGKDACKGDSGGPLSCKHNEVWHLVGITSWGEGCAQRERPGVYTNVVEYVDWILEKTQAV
Sequence of Coagulation factor XIa (P03951 19-387 partner limits assumed): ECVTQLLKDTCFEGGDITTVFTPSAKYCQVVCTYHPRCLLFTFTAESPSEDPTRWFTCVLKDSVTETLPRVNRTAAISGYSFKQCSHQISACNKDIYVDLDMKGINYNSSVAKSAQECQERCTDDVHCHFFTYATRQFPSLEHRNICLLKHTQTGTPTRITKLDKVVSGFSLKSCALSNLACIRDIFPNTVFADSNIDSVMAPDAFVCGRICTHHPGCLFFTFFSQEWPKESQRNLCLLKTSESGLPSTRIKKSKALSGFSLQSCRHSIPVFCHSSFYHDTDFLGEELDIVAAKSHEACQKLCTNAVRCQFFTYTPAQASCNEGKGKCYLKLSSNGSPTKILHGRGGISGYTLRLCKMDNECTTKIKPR
Sequence of Human plasma kallikrein (P03952 391-638 limits assumed): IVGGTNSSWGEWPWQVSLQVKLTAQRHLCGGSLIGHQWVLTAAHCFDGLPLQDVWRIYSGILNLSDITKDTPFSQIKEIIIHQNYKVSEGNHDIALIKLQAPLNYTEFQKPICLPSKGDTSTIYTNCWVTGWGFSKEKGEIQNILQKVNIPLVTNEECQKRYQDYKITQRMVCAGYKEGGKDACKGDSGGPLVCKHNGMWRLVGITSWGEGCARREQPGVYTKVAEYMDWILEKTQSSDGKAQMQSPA
Sequence of Human plasma kallikrein (P03952 20-390 partner limits assumed): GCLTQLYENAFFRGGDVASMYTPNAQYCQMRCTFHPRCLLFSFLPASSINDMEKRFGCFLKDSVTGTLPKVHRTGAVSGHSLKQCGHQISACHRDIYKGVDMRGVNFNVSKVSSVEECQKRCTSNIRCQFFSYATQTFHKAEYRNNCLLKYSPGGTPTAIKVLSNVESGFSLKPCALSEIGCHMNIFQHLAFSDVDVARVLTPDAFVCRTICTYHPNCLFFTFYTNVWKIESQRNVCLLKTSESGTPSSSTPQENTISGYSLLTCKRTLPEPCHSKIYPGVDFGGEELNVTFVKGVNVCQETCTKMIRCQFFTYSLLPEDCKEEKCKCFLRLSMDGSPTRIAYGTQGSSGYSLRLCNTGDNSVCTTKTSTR

| IC50 [1] [nM] | IC50 [2] [µM] | SMILES |
| --- | --- | --- |
| 25.4 | 10 | O=C1Nc2ccc(Cl)c(F)c2[C@]2(CCN(c3cncc(C(=O)NCc4ccc(N5CC(F)C5)nc4)n3)C2)O1 [Example 33, (S)-6-(6-Chloro-5-fluoro-2-oxo-1,2-dihydrospiro[benzo[d][1,3]oxazine-4,3′-pyrrolidin]-1′-yl)-N-((6-(3-fluoroazetidin-1-yl)pyridin-3-yl)methyl)pyrazine-2-carboxamide] |
| 35.8 | 10 | O=C1Nc2ccc(Cl)c(F)c2[C@]2(CCN(c3cncc(C(=O)NCc4ccc(N5CC[C@H](F)C5)nc4)n3)C2)O1 [Example 38, (S)-6-(6-Chloro-5-fluoro-2-oxo-1,2-dihydrospiro[benzo[d][1,3]oxazine-4,3′-pyrrolidin]-1′-yl)-N-((6-((S)-3-fluoropyrrolidin-1-yl)pyridin-3-yl)methyl)pyrazine-2-carboxamide] |
| 1.2 | 7.44 | C[C@H]1CCN(c2ccc(CNC(=O)c3cnnc(N4CC[C@]5(C4)OC(=O)Nc4ccc(Cl)c(F)c45)c3)cn2)C1 [Example 4, (S)-6-(6-Chloro-5-fluoro-2-oxo-1,2-dihydrospiro[benzo[d][1,3]oxazine-4,3′-pyrrolidin]-1′-yl)-N-((6-((S)-3-methylpyrrolidin-1-yl)pyridin-3-yl)methyl)pyridazine-4-carboxamide] |
| 1.7 | 10 | CN1CCN(c2ccc(CNC(=O)c3cncc(N4CC[C@]5(C4)OC(=O)Nc4ccc(Cl)c(F)c45)n3)cn2)CC1 [Example 43, (S)-6-(6-Chloro-5-fluoro-2-oxo-1,2-dihydrospiro[benzo[d][1,3]oxazine-4,3′-pyrrolidin]-1′-yl)-N-((6-(4-methylpiperazin-1-yl)pyridin-3-yl)methyl)pyrazine-2-carboxamide] |
| 43.7 | 10 | O=C1Nc2ccc(Cl)c(F)c2[C@]2(CCN(c3cncc(C(=O)NCc4ccc(N5CC(O)(C(F)(F)F)C5)nc4)n3)C2)O1 [Example 36, (S)-6-(6-Chloro-5-fluoro-2-oxo-1,2-dihydrospiro[benzo[d][1,3]oxazine-4,3′-pyrrolidin]-1′-yl)-N-((6-(3-hydroxy-3-(trifluoromethyl)azetidin-1-yl)pyridin-3-yl)methyl)pyrazine-2-carboxamide] |
| 35.4 | 10 | O=C1Nc2ccc(Cl)c(F)c2[C@]2(CCN(c3cncc(C(=O)NCc4ccc(N5CCCCC5)nc4)n3)C2)O1 [Example 41, (S)-6-(6-Chloro-5-fluoro-2-oxo-1,2-dihydrospiro[benzo[d][1,3]oxazine-4,3′-pyrrolidin]-1′-yl)-N-((6-(piperidin-1-yl)pyridin-3-yl)methyl)pyrazine-2-carboxamide] |

Continued, compound first:

| SMILES | IC50 [1] [nM] | IC50 [2] [µM] |
| --- | --- | --- |
| O=C1Nc2ccc(Cl)c(F)c2[C@]2(CCN(c3cncc(C(=O)NCc4ccc(Cn5ccccc5=O)nc4)n3)C2)O1 [Example 14, (S)-6-(6-Chloro-5-fluoro-2-oxo-1,2-dihydrospiro[benzo[d][1,3]oxazine-4,3′-pyrrolidin]-1′-yl)-N-((6-((2-oxopyridin-1(2H)-yl)methyl)pyridin-3-yl)methyl)pyrazine-2-carboxamide] | 1.6 | 10 |
| C[C@H]1CCN(c2ccc(CNC(=O)c3cncc(N4CC[C@]5(C4)OC(=O)Nc4ccc(Cl)c(F)c45)c3)cn2)C1 [Example 3, (S)-5-(6-Chloro-5-fluoro-2-oxo-1,2-dihydrospiro[benzo[d][1,3]oxazine-4,3′-pyrrolidin]-1′-yl)-N-((6-((S)-3-methylpyrrolidin-1-yl)pyridin-3-yl)methyl)nicotinamide] | 9.5 | 10 |
| O=C1Nc2ccc(Cl)c(F)c2[C@]2(CCN(c3cc(C(=O)NCc4ccc(N5CCC(F)(F)C5)cc4F)cnn3)C2)O1 [Example 8, (S)-6-(6-Chloro-5-fluoro-2-oxo-1,2-dihydrospiro[benzo[d][1,3]oxazine-4,3′-pyrrolidin]-1′-yl)-N-(4-(3,3-difluoropyrrolidin-1-yl)-2-fluorobenzyl)pyridazine-4-carboxamide] | 30.4 | 10 |
| O=C1Nc2ccc(Cl)c(F)c2[C@]2(CCN(c3cncc4c3CCN(Cc3ccc(Cn5ccccc5=O)cc3)C4)C2)O1 [Example 51, (S)-6-Chloro-5-fluoro-1′-(7-(4-((2-oxopyridin-1(2H)-yl)methyl)benzyl)-5,6,7,8-tetrahydro-2,7-naphthyridin-4-yl)spiro[benzo[d][1,3]oxazine-4,3′-pyrrolidin]-2(1H)-one] | 45.9 | 10 |
| CCC(C)NCc1ccc(CNC(=O)c2cnnc(N3CC[C@]4(C3)OC(=O)Nc3ccc(Cl)c(F)c34)c2)cc1 (stereo partly drawn) [Example 45, N-(4-((sec-Butylamino)methyl)benzyl)-6-((S)-6-chloro-5-fluoro-2-oxo-1,2-dihydrospiro[benzo[d][1,3]oxazine-4,3′-pyrrolidin]-1′-yl)pyridazine-4-carboxamide] | 15.8 | 10 |
| Cc1cnn(Cc2ccc(CNC(=O)c3cc(N4CC[C@]5(C4)OC(=O)Nc4ccc(Cl)c(F)c45)ncn3)cc2)c1 [Example 19, (S)-6-(6-Chloro-5-fluoro-2-oxo-1,2-dihydrospiro[benzo[d][1,3]oxazine-4,3′-pyrrolidin]-1′-yl)-N-(4-((4-methyl-1H-pyrazol-1-yl)methyl)benzyl)pyrimidine-4-carboxamide] | 25.6 | 10 |
| O=C1Nc2ccc(Cl)c(F)c2[C@]2(CCN(c3cncc(C(=O)NCc4ccc(Cn5ccccc5=O)nc4)c3)C2)O1 [Example 15, (S)-5-(6-Chloro-5-fluoro-2-oxo-1,2-dihydrospiro[benzo[d][1,3]oxazine-4,3′-pyrrolidin]-1′-yl)-N-((6-((2-oxopyridin-1(2H)-yl)methyl)pyridin-3-yl)methyl)nicotinamide] | 0.6 | 10 |
| CCC(F)(F)NCc1ccc(CNC(=O)c2cnnc(N3CC[C@]4(C3)OC(=O)Nc3ccc(Cl)c(F)c34)c2)cc1 [Example 44, (S)-6-(6-Chloro-5-fluoro-2-oxo-1,2-dihydrospiro[benzo[d][1,3]oxazine-4,3′-pyrrolidin]-1′-yl)-N-(4-(((1,1-difluoropropyl)amino)methyl)benzyl)pyridazine-4-carboxamide] | 58.3 | 7.66 |
| Cc1cnn(Cc2ccc(CNC(=O)c3cc(N4CC[C@]5(C4)OC(=O)Nc4ccc(Cl)c(F)c45)ccn3)cc2)c1 [Example 25, (S)-4-(6-Chloro-5-fluoro-2-oxo-1,2-dihydrospiro[benzo[d][1,3]oxazine-4,3′-pyrrolidin]-1′-yl)-N-(4-((4-methyl-1H-pyrazol-1-yl)methyl)benzyl)picolinamide] | 16.5 | 10 |
